Results as given in patent publication US20230404979A1, “ALPHA-2 […] RECEPTOR AGONISTS TO REDUCE MORTALITY AND IMPROVE OUTCOMES IN VIRAL R[…]” (RUSH UNIVERSITY MEDICAL CENTER, priority 2020, published 2023).
Where two headings read alike, the source gives them in different places.

Legend:
[1] = tested on: patients with COVID-19 requiring sedation and invasive mechanical ventilation
Source text: (§1) Data was collected from electronic medical records (EMRs) of Rush University hospitals: Rush University Medical Center; Rush Copley Medical Center; and Rush Oak Park Hospital. Deidentified data was collected from the EMRs by the Rush Bioinformatics and Biostatistics Core. This retrospective cohort study received expedited approval by the Institutional Review Board at Rush University Medical Center.
We identified patients that were hospitalized at Rush University from Mar. […] Corticosteroids were not excluded because at the time of the study there were no standard practices or guidelines for using this medication in the study population at Rush. Clinical outcomes were assessed from the time of admission to the time of discharge.
We evaluated patients in each group for age, gender, race, ethnicity, and comorbidities at admission. […] Directly prior to intubation, a sequential organ failure assessment score (SOFA) was calculated for each group, and a PaO2/FiO2 (mmHg) was separately assessed.
Our primary tool to assess 28-day mortality was multivariable Cox proportional hazards regression.
(§2) For continuous variables, independent samples t-tests were performed. For each continuous variable, a Levene's test for equality of variances was performed. With significance on Levene's test for heterogeneity of variances, a Mann-Whitney U test was performed. […] Categorical variables were assessed with a Pearson's chi-squared test. If any expected count in a 2×2 table was less than 5, a Fisher's exact test was performed. […] We used p≤0.05 as the threshold for significance.
Simple imputation using the mean of the immediate preceding and succeeding most severe value over 24 hours was used for missing values for Pao2/Flo2 and mSOFA scores within the 24 hour time period of interest (intubation) (11-13). A complete case analysis was performed (14). All analyses were performed using SPSS version 27.

[2] = tested on: patients with COVID-19 requiring sedation and invasive mechanical ventilation; details: for Hospital length of stay / ICU Free days at day 60 / ICU time / Intubation time / Ventilator free days at day 60: mean
Source text: as §1
We identified patients that were hospitalized at Rush University from Mar. 1, 2020 to Jul. 30, 2020. […] Corticosteroids were not excluded because at the time of the study there were no standard practices or guidelines for using this medication in the study population at Rush. Clinical outcomes were assessed from the time of admission to the time of discharge.
as §2

[3] = 90% or greater vs less than 90%
[4] = time on dexmedetomidine/time on intubation 90% or greater (n=30)
[5] = time on dexmedetomidine/time on intubation less than 90% (n=122)

Cc1cccc([C@H](C)c2cnc[nH]2)c1C [DEX, dexmedetomidine]
relative risk reduction (28-day mortality) ([1]; DEX cohort vs cohort that did not receive DEX, 95% CI 42.4-69.6%): 58.2% | 28-day mortality ([1]; from start time of intubation, cohort receiving DEX (n=152)): 27.0% | landmark analysis of 28-day mortality by start time of DEX ([1]; time cut-offs days 1-22 from intubation, earlier DEX use): lower aHRs and increased significance | 28-day mortality aHR ([1]; univariable Cox regression with DEX use as time-varying covariate, (95% CI)): 0.56 | Hospital length of stay ([2]; 90% or greater (n=30)): 24.37 days | ICU Free days at day 60 ([2]; 90% or greater (n=30)): 36.45 | ICU time ([2]; 90% or greater (n=30)): 18.76 days | Intubation time ([2]; 90% or greater (n=30)): 9.61 days | Ventilator free days at day 60 ([2]; 90% or greater (n=30)): 43.63 | Hospital length of stay, Difference Between Groups [2, 3]: -1.38 days | ICU Free days at day 60, Difference Between Groups [2, 3]: 11.48 | ICU time, Difference Between Groups [2, 3]: -1.83 days | Intubation time, Difference Between Groups [2, 3]: -5.92 days | Ventilator free days at day 60, Difference Between Groups [2, 3]: 15.55 | In-hospital mortality, Risk Ratio ([2]; 90% or greater vs less than 90% of intubation time on dexmedetomidine): 0.277 | Hospital length of stay ([2]; less than 90% (n=122)): 25.75 days | ICU Free days at day 60 ([2]; less than 90% (n=122)): 24.98 | ICU time ([2]; less than 90% (n=122)): 20.59 days | Intubation time ([2]; less than 90% (n=122)): 15.53 days | Ventilator free days at day 60 ([2]; less than 90% (n=122)): 28.08 | In-hospital mortality (%) [2, 4]: (10.0%) | In-hospital mortality (count) [2, 4]: 3/30 | In-hospital mortality (%) [2, 5]: (36.1%) | In-hospital mortality (count) [2, 5]: 44/122
